# Measurements: publication PMC6829050 (European journal of medicinal chemistry, 2019)
# Target: T1, ChTS (Cryptosporidium parvum, UniProt Q27552)
# T1 sequence (Q27552 1-521): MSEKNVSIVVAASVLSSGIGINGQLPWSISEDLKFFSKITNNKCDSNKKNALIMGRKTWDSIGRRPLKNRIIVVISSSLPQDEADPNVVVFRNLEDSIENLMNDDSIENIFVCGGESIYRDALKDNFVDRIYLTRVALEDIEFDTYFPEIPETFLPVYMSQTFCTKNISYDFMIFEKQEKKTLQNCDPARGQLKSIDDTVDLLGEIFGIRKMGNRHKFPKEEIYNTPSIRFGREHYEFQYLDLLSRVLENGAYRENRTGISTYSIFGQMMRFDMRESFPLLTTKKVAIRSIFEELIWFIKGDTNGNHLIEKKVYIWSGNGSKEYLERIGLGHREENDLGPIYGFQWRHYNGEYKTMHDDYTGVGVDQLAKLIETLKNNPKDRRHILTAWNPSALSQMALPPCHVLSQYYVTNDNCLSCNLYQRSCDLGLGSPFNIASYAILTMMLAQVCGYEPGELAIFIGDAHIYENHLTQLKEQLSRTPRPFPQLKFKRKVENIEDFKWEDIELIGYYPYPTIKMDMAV
# Assay type: biochemical
# Conditions: ChTS IC50 compared to compound 2
Compound,loss (decrease) of potency,increase (enhancement) in potency
"Nc1nc2[nH]cc(Cc3ccc(C(=O)Nc4cccc(C(=O)O)c4)cc3)c2c(=O)[nH]1 [Compound 3, 3-(4-((2-amino-4-oxo-4,7-dihydro-3H-pyrrolo[2,3-d]pyrimidin-5-yl)methyl)benzamido)benzoic acid]",~ 5 fold,
"Nc1nc2[nH]cc(Cc3ccc(C(=O)Nc4ccc(C(=O)O)cc4)cc3)c2c(=O)[nH]1 [Compound 4, 4-(4-((2-amino-4-oxo-4,7-dihydro-3H-pyrrolo[2,3-d]pyrimidin-5-yl)methyl)benzamido)benzoic acid]",~ 5 fold,
"Nc1nc2[nH]cc(Cc3ccc(C(=O)Nc4ccccc4CCC(=O)O)cc3)c2c(=O)[nH]1 [Compound 6, 3-(2-(4-((2-amino-4-oxo-4,7-dihydro-3H-pyrrolo[2,3-d]pyrimidin-5-yl)methyl)benzamido)phenyl) propanoic acid]",~ 6 fold,
"CN(C(=O)c1ccc(Cc2c[nH]c3nc(N)[nH]c(=O)c23)cc1)c1ccccc1C(=O)O [Compound 9, 2-(4-((2-amino-4-oxo-4,7-dihydro-3H-pyrrolo[2,3-d]pyrimidin-5-yl)methyl)-N-methylbenzamido) benzoic acid]",~ 11 fold,
"Nc1nc2[nH]cc(Cc3ccc(/C=C/c4ccccc4C(=O)O)cc3)c2c(=O)[nH]1 [Compound 10, (E)-2-(4-((2-amino-4-oxo-4,7-dihydro-3H-pyrrolo[2,3-d]pyrimidin-5-yl)methyl)styryl)benzoic acid]",greater than 5 fold,
"Nc1nc2[nH]cc(Cc3ccc(C(=O)NCc4ccccc4C(=O)O)cc3)c2c(=O)[nH]1 [Compound 11, 2-((4-((2-amino-4-oxo-4,7-dihydro-3H-pyrrolo[2,3-d]pyrimidin-5-yl)methyl)benzamido)methyl) benzoic acid]",6 fold,
"Nc1nc2[nH]cc(Cc3ccc(C(=O)N4CCCCC4C(=O)O)cc3)c2c(=O)[nH]1 (stereo not shown) [Compound 12, 1-(4-((2-amino-4-oxo-4,7-dihydro-3H-pyrrolo[2,3-d]pyrimidin-5-yl)methyl)benzoyl) piperidine-2-carboxylic acid]",greater than 25 fold,
"Nc1nc2[nH]cc(Cc3ccc(C(=O)NC4CCCCC4C(=O)O)cc3)c2c(=O)[nH]1 (stereo not shown) [Compound 13, 2-(4-((2-amino-4-oxo-4,7-dihydro-3H-pyrrolo[2,3-d]pyrimidin-5-yl)methyl)benzamido)cyclohexan-1-carboxylic acid]",3 fold,
"COc1ccc(C(=O)O)c(NC(=O)c2ccc(Cc3c[nH]c4nc(N)[nH]c(=O)c34)cc2)c1 [Compound 16, 2-(4-((2-amino-4-oxo-4,7-dihydro-3H-pyrrolo[2,3-d]pyrimidin-5-yl)methyl)benzamido)-4-methoxy benzoic acid]",~ 2.5 fold,
"N#Cc1ccc(C(=O)O)c(NC(=O)c2ccc(Cc3c[nH]c4nc(N)[nH]c(=O)c34)cc2)c1 [Compound 17, 2-(4-((2-amino-4-oxo-4,7-dihydro-3H-pyrrolo[2,3-d]pyrimidin-5-yl)methyl)benzamido)-4-cyanobenzoic acid]",,2 fold
"Nc1nc2[nH]cc(Cc3ccc(C(=O)Nc4cc(CO)ccc4C(=O)O)cc3)c2c(=O)[nH]1 [Compound 18, 2-(4-((2-amino-4-oxo-4,7-dihydro-3H-pyrrolo[2,3-d]pyrimidin-5-yl)methyl)benzamido)-4-(hydroxymethyl)benzoic acid]",~ 9 fold,
"COCc1ccc(C(=O)O)c(NC(=O)c2ccc(Cc3c[nH]c4nc(N)[nH]c(=O)c34)cc2)c1 [Compound 19, 2-(4-((2-amino-4-oxo-4,7-dihydro-3H-pyrrolo[2,3-d]pyrimidin-5-yl)methyl)benzamido)-4-(methoxymethyl)benzoic acid]",~ 3.5 fold,
"COCc1cccc(C(=O)O)c1NC(=O)c1ccc(Cc2c[nH]c3nc(N)[nH]c(=O)c23)cc1 [Compound 21, 2-(4-((2-amino-4-oxo-4,7-dihydro-3H-pyrrolo[2,3-d]pyrimidin-5-yl)methyl)benzamido)-3-(methoxymethyl)benzoic acid]",greater than 5 fold,
"COc1ccc(NC(=O)c2ccc(Cc3c[nH]c4nc(N)[nH]c(=O)c34)cc2)c(C(=O)O)c1 [Compound 22, 2-(4-((2-amino-4-oxo-4,7-dihydro-3H-pyrrolo[2,3-d]pyrimidin-5-yl)methyl)benzamido)-5-methoxybenzoic acid]",greater than 5 fold,
"COCCOc1cc(OC)cc(-c2ccc(Cc3c[nH]c4nc(N)[nH]c(=O)c34)cc2)c1 [Compound 26, 2-amino-5-((3’-methoxy-5’-(2-methoxyethoxy)-[1,1’-biphenyl]-4-yl)methyl)-3,7-dihydro-4H-pyrrolo [2,3-d]pyrimidin-4-one]",~ 5 fold,
"COc1cc(C(=O)O)cc(-c2ccc(Cc3c[nH]c4nc(N)[nH]c(=O)c34)cc2)c1 [Compound 27, 4’-((2-amino-4-oxo-4,7-dihydro-3H-pyrrolo[2,3-d]pyrimidin-5-yl)methyl)-5-methoxy-[1,1’-biphenyl]-3-carboxylic acid]",greater than 25 fold,

# Same assay, conditions: compared to compound 2
row,Compound,change in ChTS potency (in words)
1,"Nc1nc2[nH]cc(Cc3ccc(C(=O)Nc4ccccc4CC(=O)O)cc3)c2c(=O)[nH]1 [Compound 5, 2-(2-(4-((2-amino-4-oxo-4,7-dihydro-3H-pyrrolo[2,3-d]pyrimidin-5-yl)methyl)benzamido)phenyl) acetic acid]",small increase in potency
2,"Nc1nc2[nH]cc(Cc3ccc(C(=O)Nc4cc(Cl)ccc4C(=O)O)cc3)c2c(=O)[nH]1 [Compound 14, 2-(4-((2-amino-4-oxo-4,7-dihydro-3H-pyrrolo[2,3-d]pyrimidin-5-yl)methyl)benzamido)-4-chloro benzoic acid]",small loss of potency

# System: ChTS over the hTS enzyme
# Conditions: inhibition activity; cited from earlier work
row,Compound,selectivity for the ChTS over the hTS enzyme
1,"2-amino-4-oxo-4,7-dihydro-pyrrolo[2,3-d]pyrimidin-methyl-phenyl-L-glutamic acid [Compound 1]",6 fold
